Assays:
[1] = test system: Rce1p; conditions: ref [8], [10]; cited from earlier work
[2] = molecular target: T1, yeast Rce1p (Saccharomyces cerevisiae, UniProt Q03530); assay: In vitro fluorescence-based Ca1a2X proteolysis assay; format: biochemical, S. cerevisiae
T1 sequence (Q03530 1-315): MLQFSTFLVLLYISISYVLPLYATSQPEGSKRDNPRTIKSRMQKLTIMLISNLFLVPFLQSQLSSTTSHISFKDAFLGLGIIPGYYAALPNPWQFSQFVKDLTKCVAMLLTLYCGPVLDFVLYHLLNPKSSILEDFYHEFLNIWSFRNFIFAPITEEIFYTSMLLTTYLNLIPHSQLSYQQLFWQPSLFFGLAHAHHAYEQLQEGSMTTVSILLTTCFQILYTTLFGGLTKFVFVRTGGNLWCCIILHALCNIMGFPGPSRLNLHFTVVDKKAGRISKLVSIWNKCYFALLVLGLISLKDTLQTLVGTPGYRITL

[3] = test system: Rce1p; assay: Large-scale Rce1p proteolysis with ESI-MS and MS-MS identification of product; format: biochemical, S. cerevisiae; conditions: 150 μM substrate, membranes 0.3 mg/mL, 100 mM Hepes, 5 mM MgCl2, pH 7.5, 30 °C, 3–3.5 h; ESI-MS [M+2H]2+
[4] = test system: Rce1p; conditions: previously reported, ref [9], [10], [13], cited from earlier work; for Vmax: no quencher

| Compound | inhibition of Rce1p [1] | Vmax [4] | Km [4] [µM] | other results |
| --- | --- | --- | --- | --- |
| [Zn] [zinc] | inhibited | – | – | – |
| Abz-KSKTKC(C5BP)K(Dnp)IM [Peptide 4] | – | – | – | Vmax/KM ([2]; carbonate-washed yeast membranes, pH 7.5, 30 °C, n=2 (2), n=5 (4)): 4.8×10^−5 min/mg protein; binding affinity of 4 relative to 2 (fold higher, from KM) ([2]; compared with 2): 3.4 fold; efficiency (Vmax/KM) of 4 relative to 2 (fold lower) ([2]; compared with 2): approximately 18 fold; maximal rate of 4 relative to 2 (fold lower) ([2]; compared with 2): approximately 60 fold; identity of product of Rce1p-catalyzed proteolysis [3]: consistent with the expected product 8 |
| c1cnc2c(c1)ccc1cccnc12 [1,10-phenanthroline] | inhibited | – | – | – |
| KSKTKC(Fr)VIM | – | 600 nmol/h/mg Rce1p-containing membrane protein | 4 | – |
| Abz-KSKTKC(Fr)VIM | – | 600 nmol/h/mg Rce1p-containing membrane protein | 4 | – |

Source: paper PMC2965201 (Bioorganic & medicinal chemistry, 2010)
